# pIC50: −log10 of the molar value.
# Tested on: 996289-038-R-J1-PDC complex spheroid viability
# Assay: Anticancer human tumor 996289-038-R-J1-PDC patient-derived colon adenocarcinoma cell line growth inhibition [CLK]
# Settings: for pIC50: curve of first compound; for viability, T/C: stronger effect = lower value
# Outline: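 Patient-derived tumor cells grown as complex spheroids with HUVEC endothelial cells and mesenchymal stem cells, treated with drug combinations. Concentrations descend in half-log steps from near clinical Cmax, or from 10 microM if Cmax unknown.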
# 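Further: spheroids exposed to the agents for 7 days before readout.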
smiles,measurement,setting,value
Cn1ncnc1[C@H]1c2n[nH]c(=O)c3cc(F)cc(c23)N[C@@H]1c1ccc(F)cc1 + CN1CCN(c2cc(C(=O)Nc3cc4cc(-c5cnn(C)c5)ccc4cn3)ccn2)CC1,pIC50,second compound 0.0316 µM,< 7.00
same,pIC50,second compound 0.1 µM,< 7.00
same,pIC50,second compound 0.316 µM,< 7.00
same,pIC50,second compound 1 µM,> 9.50
same,pIC50,second compound 3.16 µM,> 9.50
same,pIC50,second compound 10 µM,> 9.50
same,"viability, T/C","second compound 0.0316 µM, first compound 0.000316 µM",104%
same,"viability, T/C","second compound 0.0316 µM, first compound 0.001 µM",102%
same,"viability, T/C","second compound 0.0316 µM, first compound 0.00316 µM",102%
same,"viability, T/C","second compound 0.0316 µM, first compound 0.01 µM",107%
same,"viability, T/C","second compound 0.0316 µM, first compound 0.0316 µM",101%
same,"viability, T/C","second compound 0.0316 µM, first compound 0.1 µM",80.4%
same,"viability, T/C","second compound 0.1 µM, first compound 0.000316 µM",88.8%
same,"viability, T/C","second compound 0.1 µM, first compound 0.001 µM",96.9%
same,"viability, T/C","second compound 0.1 µM, first compound 0.00316 µM",87.6%
same,"viability, T/C","second compound 0.1 µM, first compound 0.01 µM",97%
same,"viability, T/C","second compound 0.1 µM, first compound 0.0316 µM",95.5%
same,"viability, T/C","second compound 0.1 µM, first compound 0.1 µM",86.8%
same,"viability, T/C","second compound 0.316 µM, first compound 0.000316 µM",72.3%
same,"viability, T/C","second compound 0.316 µM, first compound 0.001 µM",70.2%
same,"viability, T/C","second compound 0.316 µM, first compound 0.00316 µM",74.6%
same,"viability, T/C","second compound 0.316 µM, first compound 0.01 µM",71.6%
same,"viability, T/C","second compound 0.316 µM, first compound 0.0316 µM",67.9%
same,"viability, T/C","second compound 0.316 µM, first compound 0.1 µM",53%
same,"viability, T/C","second compound 1 µM, first compound 0.000316 µM",5.01%
same,"viability, T/C","second compound 1 µM, first compound 0.001 µM",4.06%
same,"viability, T/C","second compound 1 µM, first compound 0.00316 µM",4.98%
same,"viability, T/C","second compound 1 µM, first compound 0.01 µM",6.96%
same,"viability, T/C","second compound 1 µM, first compound 0.0316 µM",6.27%
same,"viability, T/C","second compound 1 µM, first compound 0.1 µM",4.4%
same,"viability, T/C","second compound 3.16 µM, first compound 0.000316 µM",0.64%
same,"viability, T/C","second compound 3.16 µM, first compound 0.001 µM",0.72%
same,"viability, T/C","second compound 3.16 µM, first compound 0.00316 µM",1.05%
same,"viability, T/C","second compound 3.16 µM, first compound 0.01 µM",0.84%
same,"viability, T/C","second compound 3.16 µM, first compound 0.0316 µM",0.71%
same,"viability, T/C","second compound 3.16 µM, first compound 0.1 µM",1.35%
same,"viability, T/C","second compound 10 µM, first compound 0.000316 µM",0.97%
same,"viability, T/C","second compound 10 µM, first compound 0.001 µM",0.51%
same,"viability, T/C","second compound 10 µM, first compound 0.00316 µM",1.37%
same,"viability, T/C","second compound 10 µM, first compound 0.01 µM",2.6%
same,"viability, T/C","second compound 10 µM, first compound 0.0316 µM",0.38%
same,"viability, T/C","second compound 10 µM, first compound 0.1 µM",0.92%
NC(=O)C(=Cn1cnc(-c2cc(C(F)(F)F)cc(C(F)(F)F)c2)n1)c1cncnc1 + CN1CCN(c2cc(C(=O)Nc3cc4cc(-c5cnn(C)c5)ccc4cn3)ccn2)CC1,pIC50,second compound 0.0316 µM,7.27
same,pIC50,second compound 0.1 µM,7.53
same,pIC50,second compound 0.316 µM,> 8.02
same,pIC50,second compound 1 µM,> 8.02
same,pIC50,second compound 3.16 µM,> 8.02
same,pIC50,second compound 10 µM,> 8.02
same,"viability, T/C","second compound 0.0316 µM, first compound 0.00949 µM",73.6%
same,"viability, T/C","second compound 0.0316 µM, first compound 0.03 µM",64%
same,"viability, T/C","second compound 0.0316 µM, first compound 0.0949 µM",36.1%
same,"viability, T/C","second compound 0.0316 µM, first compound 0.3 µM",18.6%
same,"viability, T/C","second compound 0.0316 µM, first compound 0.949 µM",10.6%
same,"viability, T/C","second compound 0.0316 µM, first compound 3 µM",11.7%
same,"viability, T/C","second compound 0.1 µM, first compound 0.00949 µM",68%
same,"viability, T/C","second compound 0.1 µM, first compound 0.03 µM",49.7%
same,"viability, T/C","second compound 0.1 µM, first compound 0.0949 µM",24.9%
same,"viability, T/C","second compound 0.1 µM, first compound 0.3 µM",11.1%
same,"viability, T/C","second compound 0.1 µM, first compound 0.949 µM",4.64%
same,"viability, T/C","second compound 0.1 µM, first compound 3 µM",5.12%
same,"viability, T/C","second compound 0.316 µM, first compound 0.00949 µM",33.9%
same,"viability, T/C","second compound 0.316 µM, first compound 0.03 µM",19.1%
same,"viability, T/C","second compound 0.316 µM, first compound 0.0949 µM",2.74%
same,"viability, T/C","second compound 0.316 µM, first compound 0.3 µM",0.87%
same,"viability, T/C","second compound 0.316 µM, first compound 0.949 µM",1.43%
same,"viability, T/C","second compound 0.316 µM, first compound 3 µM",1.38%
same,"viability, T/C","second compound 1 µM, first compound 0.00949 µM",0.93%
same,"viability, T/C","second compound 1 µM, first compound 0.03 µM",0.76%
same,"viability, T/C","second compound 1 µM, first compound 0.0949 µM",0.81%
same,"viability, T/C","second compound 1 µM, first compound 0.3 µM",1.31%
same,"viability, T/C","second compound 1 µM, first compound 0.949 µM",1.15%
same,"viability, T/C","second compound 1 µM, first compound 3 µM",2.01%
same,"viability, T/C","second compound 3.16 µM, first compound 0.00949 µM",1.17%
same,"viability, T/C","second compound 3.16 µM, first compound 0.03 µM",0.72%
same,"viability, T/C","second compound 3.16 µM, first compound 0.0949 µM",1.2%
same,"viability, T/C","second compound 3.16 µM, first compound 0.3 µM",1.12%
same,"viability, T/C","second compound 3.16 µM, first compound 0.949 µM",1.5%
same,"viability, T/C","second compound 3.16 µM, first compound 3 µM",2.18%
same,"viability, T/C","second compound 10 µM, first compound 0.00949 µM",0.52%
same,"viability, T/C","second compound 10 µM, first compound 0.03 µM",0.5%
same,"viability, T/C","second compound 10 µM, first compound 0.0949 µM",0.74%
same,"viability, T/C","second compound 10 µM, first compound 0.3 µM",0.52%
same,"viability, T/C","second compound 10 µM, first compound 0.949 µM",0.45%
same,"viability, T/C","second compound 10 µM, first compound 3 µM",1.52%
